# Measurements reported in US20200023073A1, “A NEW DRUG DELIVERY SYSTEM FOR TREATMENT OF DISEASE” (SINTEF TTO AS, priority 2016, published 2020).
# Test system: MDA-MB-231 cells
# Experiment: AlamarBlue Cell Viability Assay
# Type: cell-based, human
# Conditions: MDA-MB-231, various concentrations, 24, 48 and 72 hours
# Method: The cytotoxic effect of empty PBCA NPs, PBCA NPs with encapsulated cabazitaxel as well as free cabazitaxel was studied on breast cancer cells (MDA-MB-231 cells=human epithelial, mammary adenocarcinoma cell line). AlamarBlueR Cell Viability Assay was used to evaluate cell viability. Cells were seeded in density 5000 cells/200 μl medium for each well. After 3 days old medium was removed from wells and both encapsulated cabazitaxel and free cabazitaxel was diluted in medium and added to the well. Concentration of NPs was ranged from 0.1 ng/ml to 1000 ng/ml. Concentrations of free cabazitaxel was chosen to match the concentrations of cabazitaxel in NPs. Control wells contained cells in growth medium.
# The well plates were incubated for 24, 48 and 72 hours at 37° C. and 5% CO2, before the medium was removed from the well followed by 3 times washing with fresh growth medium. Growth medium containing 10% of alamar Blue assay was added into each well and the plates incubated for another 3 hours at 37° C. and 5% CO2, and the fluorescence intensity measured by microplate reader (excitation/emission at 550/590 nm).
structure (smiles),measurement,value
"CO[C@H]1C(=O)[C@]2(C)[C@@H](OC)C[C@H]3OC[C@@]3(OC(C)=O)[C@H]2[C@H](OC(=O)c2ccccc2)[C@]2(O)C[C@H](OC(=O)[C@H](O)[C@@H](NC(=O)OC(C)(C)C)c3ccccc3)C(C)=C1C2(C)C [free cabazitaxel, cabazitaxel]",response of cell viability to treatment,dose-responsive manner
